Patent publication US20170320870A1 (Medical Research Council Technology, priority 2009, published 2017)
pIC50: −log10 of the molar value. Counter-ions that a name gives are not always drawn.

Biological target: T1, LRRK2 wild type (recombinant human, catalytic domain amino acids 970-2527, GST-tagged) (Homo sapiens, UniProt Q5S007)
T1 construct: The wild type used was recombinant human, catalytic domain (amino acids 970-2527) GST-tagged, expressed in insect cells; GST; purchased Invitrogen Corporation PV4873; host or cells: insect cells
Assay: LRRK2 wild type protein kinase assay ([γ-33P] ATP, peptide substrate […]), IC50
Format: biochemical
Conditions: LRRK2 (variant not given); read-out: Potency score, LRRK2 IC50
Text: All LRRK2 protein kinases were of human origin and were sourced from Invitrogen Corporation (Carlsbad, Calif. 92008 USA) unless otherwise indicated. The active mutant used was recombinant human, catalytic domain (amino acids 970-2527) containing a G2019S mutation, GST-tagged, expressed in insect cells (Invitrogen Cat#PV4881). The wild type used was recombinant human, catalytic domain (amino acids 970-2527) GST-tagged, expressed in insect cells (Invitrogen Cat#PV4873). The kinase dead mutant used was recombinant human, catalytic domain (amino acids 970-2527) containing a D1994A mutation, GST-tagged, expressed in insect cells (Invitrogen Cat#PM4041AE). No special measures were taken to activate any of the kinases.
All assays were carried out at room temperature (˜21° C.) and were linear with respect to time and enzyme concentration under the conditions used. Assays were performed for 180 min in a 96 well format. LRRK2 was present at a concentration of approximately 5 nM. The enzyme was diluted and assayed in 50 mM Tris-HCl pH7.5, 0.1 mM EGTA, 1 mM DTT and 10 mM MgCl2. The concentration of magnesium chloride in the assay was 10 mM. The [γ-33P] […] The peptide substrate in the assay was […] at 100 μM.
The assays were initiated with Mg/ATP and stopped by the addition of 25 μl/well 50% orthophosphoric acid. Reactions were harvested onto Whatman P81 Unifilter Plates (Fisher Scientific. Loughborough, LE115RG, UK. Cat# FDU-105-020U) using a Tomtec harvester. (Tomtec Hamden, Conn. 06514. USA) Plates were counted using a Perkin Elmer Top Count NX7. (Perkin Elmer, Shelton Conn. 06484-4794 USA)
IC50 values of inhibitors were determined after carrying out assays at 10 different concentrations of each compound in duplicate.

T1 sequence (Q5S007 970-2527): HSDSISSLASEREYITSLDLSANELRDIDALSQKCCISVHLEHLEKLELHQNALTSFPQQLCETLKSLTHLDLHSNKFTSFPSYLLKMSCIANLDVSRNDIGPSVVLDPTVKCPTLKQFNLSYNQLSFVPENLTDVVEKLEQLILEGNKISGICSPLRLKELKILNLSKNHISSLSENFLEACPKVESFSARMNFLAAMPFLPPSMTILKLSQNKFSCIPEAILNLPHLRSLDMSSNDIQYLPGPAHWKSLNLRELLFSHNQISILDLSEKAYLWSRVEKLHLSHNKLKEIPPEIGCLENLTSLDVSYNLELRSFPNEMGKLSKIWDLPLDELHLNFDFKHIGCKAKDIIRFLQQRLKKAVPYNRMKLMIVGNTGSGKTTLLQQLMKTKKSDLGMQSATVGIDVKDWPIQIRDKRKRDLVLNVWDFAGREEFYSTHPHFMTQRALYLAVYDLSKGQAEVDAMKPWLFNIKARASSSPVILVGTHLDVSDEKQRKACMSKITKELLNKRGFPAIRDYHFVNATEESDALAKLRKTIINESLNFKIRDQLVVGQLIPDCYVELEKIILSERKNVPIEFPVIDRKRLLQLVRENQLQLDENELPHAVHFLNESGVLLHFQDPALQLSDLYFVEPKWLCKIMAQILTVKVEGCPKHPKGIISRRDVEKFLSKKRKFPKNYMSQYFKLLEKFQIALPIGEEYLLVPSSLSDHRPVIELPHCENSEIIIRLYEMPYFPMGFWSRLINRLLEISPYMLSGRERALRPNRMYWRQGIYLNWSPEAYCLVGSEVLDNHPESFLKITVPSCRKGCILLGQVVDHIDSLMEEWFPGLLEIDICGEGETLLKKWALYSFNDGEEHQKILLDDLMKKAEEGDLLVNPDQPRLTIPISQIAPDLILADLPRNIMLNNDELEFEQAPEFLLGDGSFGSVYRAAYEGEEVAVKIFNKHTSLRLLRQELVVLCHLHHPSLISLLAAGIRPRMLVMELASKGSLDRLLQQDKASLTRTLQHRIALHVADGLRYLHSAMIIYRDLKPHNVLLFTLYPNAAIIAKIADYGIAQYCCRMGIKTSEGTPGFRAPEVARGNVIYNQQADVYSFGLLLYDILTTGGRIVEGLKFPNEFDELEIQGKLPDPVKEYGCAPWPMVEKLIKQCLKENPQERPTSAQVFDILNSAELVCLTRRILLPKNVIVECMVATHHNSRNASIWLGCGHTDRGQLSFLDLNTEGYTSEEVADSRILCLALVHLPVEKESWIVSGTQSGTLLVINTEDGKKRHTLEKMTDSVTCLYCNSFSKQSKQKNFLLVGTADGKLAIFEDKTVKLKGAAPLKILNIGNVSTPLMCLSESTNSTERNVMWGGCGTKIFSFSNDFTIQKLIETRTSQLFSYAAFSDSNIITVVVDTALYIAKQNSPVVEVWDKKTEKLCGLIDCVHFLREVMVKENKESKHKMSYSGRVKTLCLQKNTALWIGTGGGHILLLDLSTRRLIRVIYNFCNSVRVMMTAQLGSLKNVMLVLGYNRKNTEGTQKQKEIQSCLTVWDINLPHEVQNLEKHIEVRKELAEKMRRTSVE

Structure (SMILES)	pIC50
Cc1n[nH]c2ccnc(-c3ccoc3)c12 [Example 58, 4-Furan-3-yl-3-methyl-1H-pyrazolo[4,3-c]pyridine]	5.00 to 6.00
Cc1ccccc1Nc1nccc2[nH]nc(C)c12 [Example 320, (2-Methyl-phenyl)-(3-methyl-1H-pyrazolo[4,3-c]pyridin-4-yl)-amine]	6.00 to 7.00
Cc1n[nH]c2ccnc(N[C@H](C)C3CC3)c12 [Example 43, ((R)-1-Cyclopropyl-ethyl)-(3-methyl-1H-pyrazolo[4,3-c]pyridin-4-yl)-amine]	5.00 to 6.00
Cc1n[nH]c2ccnc(OC(C)C)c12 [Example 277, 4-isopropoxy-3-methyl-1H-pyrazolo[4,3-c]pyridine]	> 7.00
O=C(CCc1n[nH]c2ccnc(NC3CCCCC3)c12)N1CCCCC1 [Example 169, 3-(4-Cyclohexylamino-1H-pyrazolo[4,3-c]pyridin-3-yl)-1-piperidin-1-yl-propan-1-one]	6.00 to 7.00
COc1cccc(-c2nccc3[nH]nc(C)c23)c1 [Example 57, 4-(3-Methoxy-phenyl)-3-methyl-1H-pyrazolo[4,3-c]pyridine]	5.00 to 6.00
Cc1n[nH]c2ccnc(Nc3ccc(N4CCOCC4)nc3)c12 [Example 63, (3-Methyl-1H-pyrazolo[4,3-c]pyridin-4-yl)-(6-morpholin-4-yl-pyridin-3-yl)-amine]	6.00 to 7.00
Cc1n[nH]c2ccnc(Nc3cc(F)ccc3F)c12 [Example 308, (2,5-Difluoro-phenyl)-(3-methyl-1H-pyrazolo[4,3-c]pyridin-4-yl)-amine]	6.00 to 7.00
Cc1n[nH]c2ccnc(Nc3ccc(-n4cncn4)cc3)c12 [Example 96, (3-Methyl-1H-pyrazolo[4,3-c]pyridin-4-yl)-(4-1,2,4-triazol-1-yl-phenyl)-amine hydrochloride salt]	6.00 to 7.00
Cc1n[nH]c2ccnc(Nc3ccc(C#N)cc3)c12 [Example 348, 4-(3-Methyl-1H-pyrazolo[4,3-c]pyridin-4-ylamino)-benzonitrile]	5.00 to 6.00
CCOc1ccc(Nc2nccc3[nH]nc(C)c23)cc1 [Example 72, (4-Ethoxy-phenyl)-(3-methyl-1H-pyrazolo[4,3-c]pyridin-4-yl)-amine]	6.00 to 7.00
Cc1n[nH]c2ccnc(O[C@@H]3CCC[C@@H]3C)c12 (racemic) [Example 293, Cis-3-Methyl-4-(2-methyl-cyclopentyl-oxy)-1H-pyrazolo [4,3-c]pyridine]	6.00 to 7.00
c1cc2[nH]nc(-c3cnc(N4CCOCC4)nc3)c2c(NC2CCCCC2)n1 [Example 160, Cyclohexyl-[3-(2-morpholin-4-yl-pyrimidin-5-yl)-1H-pyrazolo[4,3-c]pyridin-4-yl]-amine]	6.00 to 7.00
Cc1n[nH]c2ccnc(NCCc3c[nH]c4ccccc34)c12 [Example 342, [2-(1H-Indol-3-yl)-ethyl]-(3-methyl-1H-pyrazolo[4,3-c]pyridin-4-yl)-amine]	5.00 to 6.00
CN1CCN(C(=O)CCc2n[nH]c3ccnc(NC4CCCCC4)c23)CC1 [Example 177, 3-(4-Cyclohexylamino-1H-pyrazolo[4,3-c]pyridin-3-yl)-1-(4-methyl-piperazin-1-yl)-propan-1-one]	6.00 to 7.00
Cc1n[nH]c2ccnc(N(C)Cc3ccccc3)c12 [Example 95, Benzyl-methyl-(3-methyl-1H-pyrazolo[4,3-c]pyridin-4-yl)-amine]	5.00 to 6.00
Cc1n[nH]c2ccnc(NCc3ccc(C#N)cc3)c12 [Example 327, 4-[(3-Methyl-1H-pyrazolo[4,3-c]pyridin-4-ylamino)-methyl]-benzonitrile]	5.00 to 6.00
Cn1cc(-c2n[nH]c3ccnc(NC4CCCCC4)c23)cn1 [Example 162, Cyclohexyl-[3-(1-methyl-1H-pyrazolo-4-yl)-1H-pyrazolo[4,3-c]pyridin-4-yl]-amine]	6.00 to 7.00
c1cc2[nH]nc(N3CCCC3)c2c(OC2CCCCC2)n1 [Example 237, 4-Cyclohexyloxy-3-pyrrolidin-1-yl-1H-pyrazolo[4,3-c]pyridine]	6.00 to 7.00
Cc1n[nH]c2ccnc(Nc3cccc(C(N)=O)c3)c12 [Example 76, 3-(3-Methyl-1H-pyrazolo[4,3-c]pyridin-4-ylamino)-benzamide]	6.00 to 7.00
